The subject of one data set is RPMI 8226 cells. Put plainly: PARP and Pro-Caspase 3 cleavage in RPMI 8226 cells (western blot). It counts as cell-based, human. The note with it: 100 nM; 0, 8 or 24 hours. On the procedure:
Total protein lysates were made and 20 μg of the lysates were then resolved under reducing/denaturing conditions and blotted onto nitrocellulose. The blots were then probed with anti-PARP or anti-caspase 3 antibodies followed by stripping and reprobing with an anti-actin antibody.
25 μg of the lysates were then resolved under reducing/denaturing conditions and blotted onto nitrocellulose. The blots were then probed with anti-PARP or anti-caspase 3 antibodies followed by stripping and reprobing with an anti-actin antibody.
(In general: Immunoblotting shows a protein as a band on a membrane.)

The subject of the next data set is multiple myeloma cells. Nature of the data set: Transwell migration assay, VEGF-induced migration. Type of data set: cell-based. The protocol: The compounds disclosed herein inhibit angiogenesis. […] The other compounds disclosed herein are tested in a transwell mighration assay and inhibit migration.
A further data set has as its target Cathepsin B (Homo sapiens, UniProt P07858). Nature of the data set: Inhibition of Cathepsin B. It counts as biochemical.
The next data set concerns NF-κB. Nature of the data set: NF-κB-mediated luciferase reporter gene assay, HEK293 NF-κB/Luc cells, TNF-α stimulation. It counts as cell-based. The note with it: Homo sapiens, HEK293, read-out: EC50, NF-κB-mediated luciferase activity, 1 hr pretreatment, 6 hours TNF-α. The protocol:
The HEK293 NF-κB/luciferase reporter cell line is a derivative of the human embryonic kidney cell line (ATCC; CRL-1573) and carries a luciferase reporter gene under the regulation of 5× NF-κB binding sites. […] When performing the luciferase assay, the DMEM basal medium was replaced with phenol-red free DMEM basal medium and the G418 was omitted.
For NF-κB-mediated luciferase assays, HEK293 NF-κB/luciferase cells were seeded at 1.5×10^4 cells/well in 90 μl phenol-red free DMEM complete medium into Corning 3917 white opaque-bottom tissue culture plates. For Formulae II-2, II-4, II-5A and II-18, a 400 μM starting dilution was made in 100% DMSO and this dilution was used to generate an 8-point half log dilution series. […] For formula II-20, a 2.5 mM or 8 mM starting dilution was made in 100% DMSO and the final test concentrations ranged from 6.3 μM to 2.0 nM or 20 μM to 6.3 nM respectively. The plates were returned to the incubator for 1 hour. After 1 hr pretreatment, 10 μl of a 50 ng/ml TNF-α solution, prepared in the phenol-red free DMEM medium was added, and the plates were incubated for an additional 6 hours.
At the end of the TNF-α stimulation, 100 μl of Steady Lite HTS luciferase reagent (Packard Bioscience) was added to each well and the plates were left undisturbed for 10 min at room temperature before measuring the luciferase activity. The relative luciferase units (RLU) were measured by using a Fusion microplate fluorometer (Packard Bioscience).
NF-κB inducible luciferase activity was measured at 6 hours.
A general note: In a reporter assay the amount or activity of a reporter protein is the signal.

The subject of data set [1] is 20S proteasome chymotrypsin-like activity in RPMI 8226 cells. Nature of the data set: Chymotrypsin-like activity of 20S proteasomes in treated RPMI 8226 cells. It counts as cell-based, human. As to conditions: 1 nM, 1 hr. On the procedure: RPMI 8226 (ATCC, CCL-155), the human multiple myeloma cell line, was cultured in RPMI 1640 medium supplemented with 2 mM L-glutamine, 100 units/ml penicillin, 100 μg/ml streptomycin, 1 mM sodium pyruvate and 10% heat inactivated fetal bovine serum at 37° C., 5% CO2 and 95% humidified air. […] DMSO was used as the vehicle control at a final concentration of 0.1%. Following 1 hr incubation of RMPI 8226 cells with the compounds, the cells were pelleted by centrifugation at 2,000 rpm for 10 sec at room temperature and washed 3× with ice-cold 1× Dulbecco's Phosphate-Buffered Saline (DPBS, Mediatech, Herndon, Va.). DPBS washed cells were lysed on ice for 15 min in lysis buffer (20 mM HEPES, 0.5 mM EDTA, 0.05% Triton X-100, pH 7.3) supplemented with protease inhibitor cocktail (Roche Diagnostics, Indianapolis, Ind.). Cell debris was pelleted by centrifugation at 14,000 rpm for 10 min, 4° C. and supernatants (=cell lysates) were transferred to a new tube. Protein concentration was determined by the BCA protein assay kit (Pierce Biotechnology, Rockford, Ill.). […] The released coumarin (AMC) was measured fluorometrically by using λex=390 nm and λem=460 nm. The assay was performed in a microtiter plate (Corning 3904) and followed kinetically with measurements every five minutes for 2 hr. The total amount of protein used for each assay was 20 μg. […]

Data set [2] deals with T1, human erythrocyte proteasomes, Caspase-like activity (Homo sapiens, UniProt P28072).
T1 construct: from tissue; host or cells: human erythrocytes
Nature of the data set: Caspase-like activity of human erythrocyte proteasomes. It counts as biochemical.

Another data set concerns B16-F10. Put plainly: Cell growth inhibition assay (resazurin, 48 h). Type of data set: cell-based, mouse. As to conditions: B16-F10, 48 h. On the procedure: RPMI 8226 (CCL-155), HT-29 (HTB-38), and B16-F10 (CRL-6475) cells were purchased from ATCC. RPMI 8226 cells were maintained in RPMI 1640 media supplemented with 10% (v/v) FBS, 2 mM L-glutamine, 1 mM sodium pyruvate and Penicillin/Streptomycin at 100 IU/ml and 100 μg/ml, respectively. HT-29 cells were maintained in McCoys 5A supplemented with 10% (v/v) FBS, 2 mM L-glutamine, 1 mM sodium pyruvate, 1% (v/v) non-essential amino acids, 10 mM HEPES and Penicillin/Streptomycin at 100 IU/ml and 100 μg/ml, respectively. B16-F10 cells were maintained in DMEM supplemented with 10% (v/v) FBS, 2 mM L-glutamine, 10 mM HEPES and Penicillin/Streptomycin at 100 IU/ml and 100 μg/ml, respectively.
RPMI 8226 cells were seeded at 2×10^4 cells/well in 90 μl RPMI media containing 10% (v/v) FBS or 1% (v/v) FBS into 96 well black-walled, clear-bottom tissue culture plates. […] Formulae II-16, II-17 and Formula II-18 were serially diluted in media containing 1% or 10% FBS and added in triplicate to the test wells. […] The final concentration of Formula II-18 ranged from 2 μM to 630 pM.
(In general: Resazurin is reduced to fluorescent resorufin, in cell work by metabolically active cells.)

Another data set relates to NCI-H292. Put plainly: Cell growth inhibition assay (resazurin, 48 h). It counts as cell-based, human. The note with it: NCI-H292, 48 h.
The nature of another data set: LogD7.4 determination. As to conditions: pH 7.4. From the text:
These studies consisted of solubility assessment, LogD^7.4 determination and a preliminary screen to detect cytochrome P450 enzyme inhibition.

The test system of another data set is MDA-MB-231. Nature of the data set: Cell growth inhibition assay (resazurin, 48 h). It counts as cell-based, human. As to conditions: MDA-MB-231, 48 h.
Data set [3] has as its target T2, human erythrocyte proteasomes, Trypsin-like activity (Homo sapiens, UniProt Q99436).
T2 construct: from tissue; host or cells: human erythrocytes
Nature of the data set: Trypsin-like activity of human erythrocyte proteasomes. It counts as biochemical.

Results on one compound are retold here after US7579371B2, “Methods of using [3.2.0] heterocyclic compounds and analogs thereof” (Nereus Pharmaceuticals, Inc., priority 2004, dated 2009).

A value given as a limit tells only on which side of the number the result lay.

A word on the EC50: it is the concentration that produces a half-maximal response.

For `C[C@@]12OC(=O)[C@]1([C@@H](O)[C@@H]1C=CCCC1)NC(=O)[C@@H]2CCCl` [Formula II-16, Salinosporamide A], the “cleavage of PARP and Pro-caspase 3” value in the data set on RPMI 8226 cells was “cleavage of PARP and Pro-caspase 3 in a time-dependent manner”. Moreover, the “VEGF-induced migration of multiple myeloma cells” value in the data set with multiple myeloma cells is reported as “blocked”. Further, the EC50 on Cathepsin B is more than 200 µM; in the data set with NF-κB it was approximately 0.007 µM; in [2], approximately 0.39 µM; in the data set on B16-F10, 0.047 ± 0.02 µM; with B16-F10 (Mus musculus) it was 0.033 µM; in the data set on NCI-H292 (Homo sapiens), 0.097 µM. Further, the concentration for a half-maximal effect (EC50) is 0.066 ± 0.029 µM in the data set on NCI-H292, 0.067 µM in the data set with MDA-MB-231 (Homo sapiens), 0.087 ± 0.04 µM in the data set with MDA-MB-231 and approximately 0.009 µM in data set [3]. Also, the “% inhibition of the chymotrypsin-like activity of 20S proteasomes in RPMI 8226 cell lysates” value in [1] came to 30 ± 7%. In the data set “LogD7.4 determination”, the LogD7.4 came out at 2.4.
